Test results as given in US20080299592A1, “Red-Shifted Luciferase” (priority 2007, published 2008).
Entries after “also recorded” stand apart in the source; their conditions may differ.

B1: TCLuc3: N-terminal TC-tagged luciferase with flexible (Gly-Ser)3 repeat spacer, SEQ ID NO:4 (protein)
chain: GPLGSFLNCCPGCCMEPGSGSGSGSMEDAKNIKKGPAPFYPLEDGTAGEQLHKAMKRYALVPGTIAFTDAHIEVDITYAEYFEMSVRLAEAMKRYGLNTNHRIVVCSENSLQFFMPVLGALFIGVAVAPANDIYNERELLNSMGISQPTVVFVSKKGLQKILNVQKKLPIIQKIIIMDSKTDYQGFQSMYTFVTSHLPPGFNEYDFVPESFDRDKTIALIMNSSGSTGLPKGVALPHRTACVRFSHARDPIFGNQIIPDTAILSVVPFHHGFGMFTTLGYLICGFRVVLMYRFEEELFLRSLQDYKIQSALLVPTLFSFFAKSTLIDKYDLSNLHEIASGGAPLSKEVGEAVAKRFHLPGIRQGYGLTETTSAILITPEGDDKPGAVGKVVPFFEAKVVDLDTGKTLGVNQRGELCVRGPMIMSGYVNNPEATNALIDKDGWLHSGDIAYWDEDEHFFIVDRLKSLIKYKGYQVAPAELESILLQHPNIFDAGVAGLPDDDAGELPAAVVVLEHGKTMTEKEIVDYVASQVTTAKKLRGGVVFVDEVPKGLTGKLDARKIREILIKAKKGGKIAV
B2: TCLuc4: N-terminal TC-tagged luciferase with truncated amino acids between tag and luciferase, SEQ ID NO:5 (protein)
chain: GPLGSFLNCCPGCCMEDAKNIKKGPAPFYPLEDGTAGEQLHKAMKRYALVPGTIAFTDAHIEVDITYAEYFEMSVRLAEAMKRYGLNTNHRIVVCSENSLQFFMPVLGALFIGVAVAPANDIYNERELLNSMGISQPTVVFVSKKGLQKILNVQKKLPIIQKIIIMDSKTDYQGFQSMYTFVTSHLPPGFNEYDFVPESFDRDKTIALIMNSSGSTGLPKGVALPHRTACVRFSHARDPIFGNQIIPDTAILSVVPFHHGFGMFTTLGYLICGFRVVLMYRFEEELFLRSLQDYKIQSALLVPTLFSFFAKSTLIDKYDLSNLHEIASGGAPLSKEVGEAVAKRFHLPGIRQGYGLTETTSAILITPEGDDKPGAVGKVVPFFEAKVVDLDTGKTLGVNQRGELCVRGPMIMSGYVNNPEATNALIDKDGWLHSGDIAYWDEDEHFFIVDRLKSLIKYKGYQVAPAELESILLQHPNIFDAGVAGLPDDDAGELPAAVVVLEHGKTMTEKEIVDYVASQVTTAKKLRGGVVFVDEVPKGLTGKLDARKIREILIKAKKGGKIAV
B3: TCLuc1: Firefly luciferase with optimized tetracysteine tag fused at the amino terminus, SEQ ID NO:2 (protein)
chain: GPLGSFLNCCPGCCMEPGSMEDAKNIKKGPAPFYPLEDGTAGEQLHKAMKRYALVPGTIAFTDAHIEVDITYAEYFEMSVRLAEAMKRYGLNTNHRIVVCSENSLQFFMPVLGALFIGVAVAPANDIYNERELLNSMGISQPTVVFVSKKGLQKILNVQKKLPIIQKIIIMDSKTDYQGFQSMYTFVTSHLPPGFNEYDFVPESFDRDKTIALIMNSSGSTGLPKGVALPHRTACVRFSHARDPIFGNQIIPDTAILSVVPFHHGFGMFTTLGYLICGFRVVLMYRFEEELFLRSLQDYKIQSALLVPTLFSFFAKSTLIDKYDLSNLHEIASGGAPLSKEVGEAVAKRFHLPGIRQGYGLTETTSAILITPEGDDKPGAVGKVVPFFEAKVVDLDTGKTLGVNQRGELCVRGPMIMSGYVNNPEATNALIDKDGWLHSGDIAYWDEDEHFFIVDRLKSLIKYKGYQVAPAELESILLQHPNIFDAGVAGLPDDDAGELPAAVVVLEHGKTMTEKEIVDYVASQVTTAKKLRGGVVFVDEVPKGLTGKLDARKIREILIKAKKGGKIAV
B4: TCLuc5: N-terminal TC-tagged Δ2-luciferase, truncated, SEQ ID NO:6 (protein)
chain: GPLGSFLNCCPGCCDAKNIKKGPAPFYPLEDGTAGEQLHKAMKRYALVPGTIAFTDAHIEVDITYAEYFEMSVRLAEAMKRYGLNTNHRIVVCSENSLQFFMPVLGALFIGVAVAPANDIYNERELLNSMGISQPTVVFVSKKGLQKILNVQKKLPIIQKIIIMDSKTDYQGFQSMYTFVTSHLPPGFNEYDFVPESFDRDKTIALIMNSSGSTGLPKGVALPHRTACVRFSHARDPIFGNQIIPDTAILSVVPFHHGFGMFTTLGYLICGFRVVLMYRFEEELFLRSLQDYKIQSALLVPTLFSFFAKSTLIDKYDLSNLHEIASGGAPLSKEVGEAVAKRFHLPGIRQGYGLTETTSAILITPEGDDKPGAVGKVVPFFEAKVVDLDTGKTLGVNQRGELCVRGPMIMSGYVNNPEATNALIDKDGWLHSGDIAYWDEDEHFFIVDRLKSLIKYKGYQVAPAELESILLQHPNIFDAGVAGLPDDDAGELPAAVVVLEHGKTMTEKEIVDYVASQVTTAKKLRGGVVFVDEVPKGLTGKLDARKIREILIKAKKGGKIAV
B5: TCLuc2: Firefly luciferase with optimized tetracysteine tag fused at the carboxy terminus, SEQ ID NO:3 (protein)
chain: GPLGSMEDAKNIKKGPAPFYPLEDGTAGEQLHKAMKRYALVPGTIAFTDAHIEVDITYAEYFEMSVRLAEAMKRYGLNTNHRIVVCSENSLQFFMPVLGALFIGVAVAPANDIYNERELLNSMGISQPTVVFVSKKGLQKILNVQKKLPIIQKIIIMDSKTDYQGFQSMYTFVTSHLPPGFNEYDFVPESFDRDKTIALIMNSSGSTGLPKGVALPHRTACVRFSHARDPIFGNQIIPDTAILSVVPFHHGFGMFTTLGYLICGFRVVLMYRFEEELFLRSLQDYKIQSALLVPTLFSFFAKSTLIDKYDLSNLHEIASGGAPLSKEVGEAVAKRFHLPGIRQGYGLTETTSAILITPEGDDKPGAVGKVVPFFEAKVVDLDTGKTLGVNQRGELCVRGPMIMSGYVNNPEATNALIDKDGWLHSGDIAYWDEDEHFFIVDRLKSLIKYKGYQVAPAELESILLQHPNIFDAGVAGLPDDDAGELPAAVVVLEHGKTMTEKEIVDYVASQVTTAKKLRGGVVFVDEVPKGLTGKLDARKIREILIKAKKGGKIAVFLNCCPGCCMEP

Experiments:
[1] = system: HeLa cells; experiment: Intracellular staining of mammalian tissue culture cells (HeLa) with bis-arsenical dyes; assay type: cell-based; conditions: absence of tetracysteine-tagged proteins and thiol competitors
[2] = system: tetracysteine-tagged protein; experiment: Binding/labeling of tetracysteine-tagged protein by bis-arsenical dyes (MALDI-MS); conditions: for binding to tetracysteine-tagged protein: MALDI-MS, canonical tetracysteine tag
[3] = target: tetracysteine tag; conditions: FlAsH / tetracysteine tag; Adams et al. 2002; read-out: dissociation constant; cited from earlier work
[4] = system: mice; conditions: cited from earlier work
[5] = system: tetracysteine-tagged firefly luciferase; experiment: BRET from tetracysteine-tagged firefly luciferase constructs to ReAsH; assay type: biochemical; conditions: for BRET: to ReAsH, purified TC-tagged luciferase constructs, Table 1; for efficiency of BRET (apparent): treatment with ReAsH
Text: Firefly luciferase fusion proteins with an optimized tetracysteine (TC) tag ([…]; SEQ ID NO:1) (Martin et al., Nature Biotechnology, 2005, 23:1308-14) fused onto either the amino (TCLuc1) or carboxy (TCLuc2) terminus of the luciferase protein (Promega's pGL3 (GenBank No. U47295.2)) were cloned and expressed (see list in Table 1). The proteins were expressed in E. Coli as GST fusions, purified by glutathione agarose affinity chromatography, and eluted as the TC-tagged protein by cleavage with PreScission™ protease.
The emission spectrum is sharpened, such that the maximum at 608 nm is actually higher than the 560 nm peak of luciferase (FIG. 3).
To help evaluate the role of distance and orientation on the BRET efficiency, additional N-terminal fusions of the TC tag were constructed (Table 1). […] The best-performing TCLuc1 fusion was cloned into pcDNA3.1 for expression in mammalian tissue culture cells. This construct lacks a C-terminal peroxisomal targeting sequence, and thus the expressed luciferase will localize to the cytoplasm.

| Molecule | intracellular staining [1] | binding to tetracysteine-tagged protein [2] | BRET [5] | efficiency of BRET (apparent) [5] | further results |
| --- | --- | --- | --- | --- | --- |
| bis-arsenical oxazine 170 [As2Ox170] | intracellular staining; also recorded: highly fluorescent within cells | fails to bind; also recorded: lack of binding |  |  | fluorescent labeling of tetracysteine-tagged proteins [2]: fails to fluorescently label |
| FlAsH [reference compound] | bright intracellular staining | binding |  |  | Kd [3]: ~4 pM |
| O=c1ccc2nc3ccc(O)c([As]4SCCS4)c3oc-2c1[As]1SCCS1 [ReAsH, reference compound] | bright intracellular staining | binding |  |  |  |
| CN(Cc1cnc2nc(N)nc(N)c2n1)c1ccc(C(=O)N[C@@H](CCC(=O)O)C(=O)O)cc1 [methotrexate] |  |  |  |  | LD50 relative to melarsonyl ([4]; mouse, in vivo): two-fold lower LD50 than melarsonyl |
| Nc1ccc([As](=O)(O)O)cc1 [arsanilic acid] |  |  |  |  | LD50 ([4]; mice): 248 mg/kg |
| B1 |  |  | ~50% | about 50% |  |
| B2 |  |  | quenches | quenching of luciferase emission |  |
| B3 |  |  | ~80% | about 80% |  |
| B4 |  |  | inactive | complete loss of luciferase activity |  |
| B5 |  |  | ~50% | about 50% |  |
